ChEMBL document CHEMBL3991601, “The target landscape of clinical kinase drugs” (Science, 2017)
Calls of active or inactive are those of the source. Rule as the data show it, for most assays here: actives have a measured Kd and inactives only a lower limit.

Legend:
Ephrin type-B receptor 6 = target: T1, Ephrin type-B receptor 6 (Homo sapiens, UniProt O15197)
T1 sequence (O15197 whole entry): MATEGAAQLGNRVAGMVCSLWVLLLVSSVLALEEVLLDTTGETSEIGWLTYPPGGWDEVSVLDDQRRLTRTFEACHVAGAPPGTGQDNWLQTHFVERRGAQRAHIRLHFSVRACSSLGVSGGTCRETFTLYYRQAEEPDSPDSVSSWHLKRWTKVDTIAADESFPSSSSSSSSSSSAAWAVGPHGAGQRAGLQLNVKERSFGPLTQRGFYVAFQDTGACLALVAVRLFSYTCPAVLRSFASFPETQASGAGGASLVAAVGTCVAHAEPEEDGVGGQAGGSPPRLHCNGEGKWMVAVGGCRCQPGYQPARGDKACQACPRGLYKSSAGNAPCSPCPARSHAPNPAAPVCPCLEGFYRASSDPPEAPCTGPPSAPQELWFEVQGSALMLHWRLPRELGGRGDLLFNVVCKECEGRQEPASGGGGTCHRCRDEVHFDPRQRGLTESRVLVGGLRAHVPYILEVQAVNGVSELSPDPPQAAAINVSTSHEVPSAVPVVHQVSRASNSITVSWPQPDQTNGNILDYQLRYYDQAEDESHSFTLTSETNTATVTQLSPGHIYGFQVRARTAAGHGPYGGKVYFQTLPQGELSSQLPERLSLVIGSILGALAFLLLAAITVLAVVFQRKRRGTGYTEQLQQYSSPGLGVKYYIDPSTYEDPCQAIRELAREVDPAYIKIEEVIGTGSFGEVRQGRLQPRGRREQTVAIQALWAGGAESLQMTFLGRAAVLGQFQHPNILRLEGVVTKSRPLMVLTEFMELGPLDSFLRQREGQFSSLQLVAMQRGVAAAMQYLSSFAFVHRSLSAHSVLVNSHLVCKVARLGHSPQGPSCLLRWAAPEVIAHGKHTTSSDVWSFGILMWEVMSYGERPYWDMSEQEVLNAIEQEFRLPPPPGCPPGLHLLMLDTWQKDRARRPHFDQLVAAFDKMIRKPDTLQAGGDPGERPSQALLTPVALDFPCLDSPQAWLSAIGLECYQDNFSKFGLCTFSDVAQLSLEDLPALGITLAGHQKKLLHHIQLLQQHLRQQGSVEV

[1] = target: Mitogen-activated protein kinase kinase kinase kinase 4 (Homo sapiens, UniProt O95819)
[2] = target: T2, Serine/threonine-protein kinase Chk1 (Homo sapiens, UniProt O14757)
T2 sequence (O14757 whole entry): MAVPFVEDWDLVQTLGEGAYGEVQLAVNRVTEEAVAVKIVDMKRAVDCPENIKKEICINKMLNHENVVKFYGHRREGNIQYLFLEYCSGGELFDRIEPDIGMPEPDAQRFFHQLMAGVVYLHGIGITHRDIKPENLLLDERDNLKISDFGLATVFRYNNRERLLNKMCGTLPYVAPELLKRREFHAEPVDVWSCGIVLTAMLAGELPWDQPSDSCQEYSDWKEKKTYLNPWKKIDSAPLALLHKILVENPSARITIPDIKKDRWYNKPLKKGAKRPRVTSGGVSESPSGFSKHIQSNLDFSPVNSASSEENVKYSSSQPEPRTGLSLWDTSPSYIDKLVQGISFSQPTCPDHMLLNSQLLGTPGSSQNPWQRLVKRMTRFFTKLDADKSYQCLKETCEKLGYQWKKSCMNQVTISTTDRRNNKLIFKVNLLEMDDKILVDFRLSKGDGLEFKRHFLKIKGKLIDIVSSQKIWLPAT

[3] = target: Mitogen-activated protein kinase kinase kinase kinase 5 (Homo sapiens, UniProt Q9Y4K4)
[4] = target: Eukaryotic translation initiation factor 2-alpha kinase 1 (Homo sapiens, UniProt Q9BQI3)
[5] = target: Cyclin-dependent kinase 6 (Homo sapiens, UniProt Q00534)
[6] = target: T3, ATP-dependent RNA helicase DDX42 (Homo sapiens, UniProt Q86XP3)
T3 sequence (Q86XP3 whole entry): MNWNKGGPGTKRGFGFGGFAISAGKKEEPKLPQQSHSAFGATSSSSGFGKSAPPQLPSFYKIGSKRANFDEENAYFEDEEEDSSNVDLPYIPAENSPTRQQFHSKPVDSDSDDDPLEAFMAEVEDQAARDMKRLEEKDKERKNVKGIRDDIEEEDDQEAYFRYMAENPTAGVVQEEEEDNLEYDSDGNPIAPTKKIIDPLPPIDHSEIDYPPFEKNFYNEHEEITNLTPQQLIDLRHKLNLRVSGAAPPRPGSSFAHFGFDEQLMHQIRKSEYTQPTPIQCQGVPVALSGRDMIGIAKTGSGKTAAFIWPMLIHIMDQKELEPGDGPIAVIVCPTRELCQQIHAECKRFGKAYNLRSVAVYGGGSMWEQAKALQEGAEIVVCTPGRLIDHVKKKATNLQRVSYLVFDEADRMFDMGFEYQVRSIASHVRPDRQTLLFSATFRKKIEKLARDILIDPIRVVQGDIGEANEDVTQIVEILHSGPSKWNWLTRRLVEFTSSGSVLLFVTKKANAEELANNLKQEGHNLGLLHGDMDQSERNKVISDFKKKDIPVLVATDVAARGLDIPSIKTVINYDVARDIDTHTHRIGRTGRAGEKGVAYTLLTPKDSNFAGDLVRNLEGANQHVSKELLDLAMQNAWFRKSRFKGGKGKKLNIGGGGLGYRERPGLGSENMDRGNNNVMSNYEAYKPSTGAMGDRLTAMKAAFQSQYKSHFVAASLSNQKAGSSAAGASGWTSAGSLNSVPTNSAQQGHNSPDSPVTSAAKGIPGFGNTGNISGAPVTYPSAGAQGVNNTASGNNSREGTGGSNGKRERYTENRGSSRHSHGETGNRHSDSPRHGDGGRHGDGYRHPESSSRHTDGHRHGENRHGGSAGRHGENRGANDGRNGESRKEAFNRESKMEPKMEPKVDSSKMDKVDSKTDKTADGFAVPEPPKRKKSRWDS
Also: in the data inactive means no Kd found up to 30 µM.

Mitogen-activated protein kinase kinase kinase kinase 4, sequence (O95819 whole entry): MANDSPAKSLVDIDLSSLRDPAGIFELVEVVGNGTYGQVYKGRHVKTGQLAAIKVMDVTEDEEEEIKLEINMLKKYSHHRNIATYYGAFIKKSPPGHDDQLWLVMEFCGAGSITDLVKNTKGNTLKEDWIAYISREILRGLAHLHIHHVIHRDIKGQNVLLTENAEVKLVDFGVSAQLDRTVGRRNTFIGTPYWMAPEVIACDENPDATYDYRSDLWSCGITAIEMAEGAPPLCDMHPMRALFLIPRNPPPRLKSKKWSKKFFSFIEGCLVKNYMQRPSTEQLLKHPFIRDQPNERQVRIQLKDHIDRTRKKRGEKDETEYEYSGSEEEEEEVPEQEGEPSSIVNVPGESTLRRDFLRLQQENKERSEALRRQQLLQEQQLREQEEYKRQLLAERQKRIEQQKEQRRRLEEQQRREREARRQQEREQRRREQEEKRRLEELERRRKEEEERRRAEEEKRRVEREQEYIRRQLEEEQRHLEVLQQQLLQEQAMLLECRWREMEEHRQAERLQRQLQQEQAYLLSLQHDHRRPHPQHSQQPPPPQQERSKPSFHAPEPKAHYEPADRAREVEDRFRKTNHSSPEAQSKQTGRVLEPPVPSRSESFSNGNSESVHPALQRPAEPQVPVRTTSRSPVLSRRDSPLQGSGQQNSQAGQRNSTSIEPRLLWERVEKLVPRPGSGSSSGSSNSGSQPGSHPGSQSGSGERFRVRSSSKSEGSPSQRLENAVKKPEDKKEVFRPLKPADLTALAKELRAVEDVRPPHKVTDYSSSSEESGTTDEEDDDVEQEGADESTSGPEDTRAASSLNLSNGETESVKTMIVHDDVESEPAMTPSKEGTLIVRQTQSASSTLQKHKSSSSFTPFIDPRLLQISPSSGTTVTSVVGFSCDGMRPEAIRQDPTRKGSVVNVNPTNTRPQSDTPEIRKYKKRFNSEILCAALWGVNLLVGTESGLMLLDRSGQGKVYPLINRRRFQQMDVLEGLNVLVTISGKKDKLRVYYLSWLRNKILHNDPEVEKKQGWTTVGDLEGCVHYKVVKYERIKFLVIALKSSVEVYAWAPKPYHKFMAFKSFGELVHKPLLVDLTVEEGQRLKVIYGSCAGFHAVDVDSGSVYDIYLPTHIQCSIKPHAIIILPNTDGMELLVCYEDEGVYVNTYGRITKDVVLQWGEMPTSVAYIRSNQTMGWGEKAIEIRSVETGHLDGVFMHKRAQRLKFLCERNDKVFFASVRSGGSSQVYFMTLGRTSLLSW
Cyclin-dependent kinase 6, sequence (Q00534 whole entry): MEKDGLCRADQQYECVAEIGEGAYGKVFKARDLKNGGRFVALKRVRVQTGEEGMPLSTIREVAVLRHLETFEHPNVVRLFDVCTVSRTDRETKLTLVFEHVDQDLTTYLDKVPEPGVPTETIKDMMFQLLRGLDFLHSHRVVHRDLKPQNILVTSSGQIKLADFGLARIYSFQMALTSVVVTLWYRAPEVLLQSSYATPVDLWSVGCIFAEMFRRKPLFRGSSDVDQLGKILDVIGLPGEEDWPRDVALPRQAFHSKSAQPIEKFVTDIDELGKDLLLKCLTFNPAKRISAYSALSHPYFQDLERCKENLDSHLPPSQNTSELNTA
Mitogen-activated protein kinase kinase kinase kinase 5, sequence (Q9Y4K4 whole entry): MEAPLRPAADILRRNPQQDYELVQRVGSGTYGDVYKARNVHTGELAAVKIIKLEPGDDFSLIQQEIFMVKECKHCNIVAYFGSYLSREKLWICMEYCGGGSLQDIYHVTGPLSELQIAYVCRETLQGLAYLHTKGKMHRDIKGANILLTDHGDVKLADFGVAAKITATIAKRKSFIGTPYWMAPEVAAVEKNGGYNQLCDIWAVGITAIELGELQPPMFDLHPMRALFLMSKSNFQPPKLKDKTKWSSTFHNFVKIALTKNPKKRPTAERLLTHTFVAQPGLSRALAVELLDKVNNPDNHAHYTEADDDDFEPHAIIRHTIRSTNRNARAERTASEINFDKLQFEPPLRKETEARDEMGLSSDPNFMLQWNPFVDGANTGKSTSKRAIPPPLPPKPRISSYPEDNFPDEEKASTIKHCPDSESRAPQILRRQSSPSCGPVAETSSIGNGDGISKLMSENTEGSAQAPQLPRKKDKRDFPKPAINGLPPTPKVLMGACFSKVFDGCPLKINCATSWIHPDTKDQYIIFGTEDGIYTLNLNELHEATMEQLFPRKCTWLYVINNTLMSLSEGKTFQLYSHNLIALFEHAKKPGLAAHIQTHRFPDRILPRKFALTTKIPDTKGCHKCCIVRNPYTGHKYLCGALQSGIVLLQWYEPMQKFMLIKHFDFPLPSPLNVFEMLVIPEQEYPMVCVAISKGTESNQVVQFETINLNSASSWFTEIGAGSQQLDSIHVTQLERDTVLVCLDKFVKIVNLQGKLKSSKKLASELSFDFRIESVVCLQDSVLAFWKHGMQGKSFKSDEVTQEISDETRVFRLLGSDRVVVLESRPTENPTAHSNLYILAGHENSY
Eukaryotic translation initiation factor 2-alpha kinase 1, sequence (Q9BQI3 whole entry): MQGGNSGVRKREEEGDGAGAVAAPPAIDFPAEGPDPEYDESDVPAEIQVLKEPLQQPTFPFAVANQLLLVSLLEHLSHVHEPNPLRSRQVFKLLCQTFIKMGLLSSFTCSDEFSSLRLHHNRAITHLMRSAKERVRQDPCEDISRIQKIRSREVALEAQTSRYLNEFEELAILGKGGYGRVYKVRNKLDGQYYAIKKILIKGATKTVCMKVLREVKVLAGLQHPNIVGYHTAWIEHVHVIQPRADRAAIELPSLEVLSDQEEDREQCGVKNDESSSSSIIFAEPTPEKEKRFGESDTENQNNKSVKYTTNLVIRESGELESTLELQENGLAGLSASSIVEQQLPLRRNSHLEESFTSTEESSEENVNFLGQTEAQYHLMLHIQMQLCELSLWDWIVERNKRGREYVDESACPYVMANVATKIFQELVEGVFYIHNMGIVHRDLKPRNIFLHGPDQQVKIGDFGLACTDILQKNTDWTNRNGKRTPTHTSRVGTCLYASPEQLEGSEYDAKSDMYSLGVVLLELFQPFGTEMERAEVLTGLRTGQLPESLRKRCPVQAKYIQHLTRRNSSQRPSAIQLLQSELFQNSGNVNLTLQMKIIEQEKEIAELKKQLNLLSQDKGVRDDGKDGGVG

Structure (SMILES) | Kd (Ephrin type-B receptor 6) | Kd [1] | Kd [2] | Kd [3] | Kd [4] | Kd [5] | Kd [6]
Cc1cc(C(=O)Nc2cc(Oc3ccc4nc(NC(=O)C5CC5)cn4n3)ccc2C)n(C)n1 [TAK-593] | > 30 µM (inactive) | > 30 µM (inactive) | > 30 µM (inactive) | > 30 µM (inactive) | > 30 µM (inactive) | > 30 µM (inactive) | 
C[C@]1(O)C[C@@H](c2nc(-c3ccc4ccc(-c5ccccc5)nc4c3)c3c(N)nccn32)C1 [LINSITINIB] | > 30 µM (inactive) |  |  | 0.614 µM (active) | > 30 µM (inactive) | > 30 µM (inactive) | > 30 µM (inactive)
O=C(O)c1ccc2c(c1)nc(Nc1cccc(Cl)c1)c1ccncc12 [SILMITASERTIB] | > 30 µM (inactive) | > 30 µM (inactive) | 6.17 µM (active) | > 30 µM (inactive) | 1.66 µM (active) | > 30 µM (inactive) | 
CN(c1ncccc1CNc1nc(Nc2ccc3c(c2)CC(=O)N3)ncc1C(F)(F)F)S(C)(=O)=O [PF-00562271] | > 30 µM (inactive) |  |  |  | > 30 µM (inactive) | > 30 µM (inactive) | > 30 µM (inactive)
O[C@H]1CC[C@H](Nc2ncc3nc(Nc4c(F)cc(F)cc4F)n([C@H]4CCOC4)c3n2)CC1 [TANZISERTIB] | > 30 µM (inactive) | > 30 µM (inactive) | > 30 µM (inactive) | > 30 µM (inactive) | > 30 µM (inactive) | > 30 µM (inactive) | 
Cn1c(=O)n(-c2ccc(C(C)(C)C#N)cc2)c2c3cc(-c4cnc5ccccc5c4)ccc3ncc21 [DACTOLISIB] | > 30 µM (inactive) |  |  |  | > 30 µM (inactive) | > 30 µM (inactive) | > 30 µM (inactive)
CN1CCN(c2nc(C3=C(c4c[nH]c5ccccc45)C(=O)NC3=O)c3ccccc3n2)CC1 [SOTRASTAURIN] | > 30 µM (inactive) |  | > 30 µM (inactive) |  | > 30 µM (inactive) | > 30 µM (inactive) | 
CCOc1ccn(-c2ccc(F)cc2)c(=O)c1C(=O)Nc1ccc(Oc2ccnc(N)c2Cl)c(F)c1 [BMS-777607] | > 30 µM (inactive) |  | > 30 µM (inactive) | > 30 µM (inactive) | > 30 µM (inactive) | > 30 µM (inactive) | > 30 µM (inactive)
Cn1cnc2c(F)c(Nc3ccc(Br)cc3Cl)c(C(=O)NOCCO)cc21 [SELUMETINIB] |  |  |  |  |  | > 30 µM (inactive) | > 30 µM (inactive)
O=S(=O)(c1cccc2cnccc12)N1CCCNCC1 [FASUDIL] | > 30 µM (inactive) |  |  |  | > 30 µM (inactive) | > 30 µM (inactive) | > 30 µM (inactive)
COc1cc2c(N3CCN(C(=O)Nc4ccc(OC(C)C)cc4)CC3)ncnc2cc1OCCCN1CCCCC1 [TANDUTINIB] |  |  |  |  |  | > 30 µM (inactive) | > 30 µM (inactive)
COc1cc(F)c(F)c(Nc2ccc(I)cc2F)c1NS(=O)(=O)C1(C[C@H](O)CO)CC1 [REFAMETINIB] | > 30 µM (inactive) | > 30 µM (inactive) | 0.439 µM (active) | > 30 µM (inactive) | > 30 µM (inactive) | > 30 µM (inactive) | 
COc1cc2c(Oc3ccc4[nH]c(C)cc4c3F)ncnc2cc1OCCCN1CCCC1 [CEDIRANIB] |  |  |  |  |  | > 30 µM (inactive) | > 30 µM (inactive)
c1cc(OCCN2CCCCC2)cc(-c2n[nH]c3ccc(-c4nc[nH]n4)cc23)c1 [CC-401] | > 30 µM (inactive) | 4.17 µM (active) | > 30 µM (inactive) | > 30 µM (inactive) | > 30 µM (inactive) | > 30 µM (inactive) | 
COc1cc(Nc2ncc(F)c(Nc3ccc4c(n3)N(COP(=O)(O)O)C(=O)C(C)(C)O4)n2)cc(OC)c1OC [FOSTAMATINIB] | > 30 µM (inactive) | > 30 µM (inactive) | > 30 µM (inactive) | > 30 µM (inactive) | > 30 µM (inactive) | > 30 µM (inactive) | 
CC[C@@](C)(Nc1ccnc(-c2c[nH]c3ncccc23)n1)C(=O)NCC(F)(F)F [DECERNOTINIB] | > 30 µM (inactive) | > 30 µM (inactive) | > 30 µM (inactive) | > 30 µM (inactive) | > 30 µM (inactive) | > 30 µM (inactive) | 
C=CCn1c(=O)c2cnc(Nc3ccc(N4CCN(C)CC4)cc3)nc2n1-c1cccc(C(C)(C)O)n1 [ADAVOSERTIB] | 0.337 µM (active) |  |  |  | > 30 µM (inactive) | > 30 µM (inactive) | > 30 µM (inactive)
CC1(C)CNc2cc(NC(=O)c3cccnc3NCc3ccncc3)ccc21 [MOTESANIB] |  |  |  |  |  | > 30 µM (inactive) | > 30 µM (inactive)
CN(C)C/C=C/C(=O)Nc1cc2c(Nc3ccc(F)c(Cl)c3)ncnc2cc1O[C@H]1CCOC1 [AFATINIB] |  |  |  |  |  | > 30 µM (inactive) | > 30 µM (inactive)
Cc1c(Cn2c(C)nc3c(C(=O)O)cc(N4CCOCC4)cc32)cccc1C(F)(F)F [GSK-2636771] | > 30 µM (inactive) | > 30 µM (inactive) | > 30 µM (inactive) | > 30 µM (inactive) | > 30 µM (inactive) | > 30 µM (inactive) | 
C[C@@]1(C(=O)Nc2ccc(F)nc2)CCCN1c1nc(Nc2cc(C3CC3)n[nH]2)c2cccn2n1 [BMS-754807] |  |  |  |  |  | > 30 µM (inactive) | > 30 µM (inactive)
CCc1nc(C(N)=O)c(Nc2ccc(N3CCC(N4CCN(C)CC4)CC3)c(OC)c2)nc1NC1CCOCC1 [GILTERITINIB] | 0.241 µM | 0.202 µM (active) | > 30 µM (inactive) | 3.12 µM (active) |  | > 30 µM (inactive) | 
COc1cccc(Nc2ncnn3ccc(CN4CC[C@@H](N)[C@H](O)C4)c23)c1 [BMS-690514] | > 30 µM (inactive) | > 30 µM (inactive) | 1.87 µM (active) |  | > 30 µM (inactive) | > 30 µM (inactive) | > 30 µM (inactive)
N#CCNC(=O)c1ccc(-c2ccnc(Nc3ccc(N4CCOCC4)cc3)n2)cc1 [MOMELOTINIB] | > 30 µM (inactive) |  | > 30 µM (inactive) |  |  | 3.36 µM | > 30 µM (inactive)
CCN(CCCOc1ccc2c(Nc3cc(CC(=O)Nc4cccc(F)c4)n[nH]3)ncnc2c1)CCOP(=O)(O)O [BARASERTIB] | > 30 µM (inactive) |  |  | 2.24 µM (active) | > 30 µM (inactive) | > 30 µM (inactive) | > 30 µM (inactive)
